From BigSolDB 2.1

O=P(Oc1ccccc1)(Oc1ccccc1)Oc1ccc(OP(=O)(Oc2ccccc2)Oc2ccccc2)cc1
Conditions | solubility (mole fraction)
in acetone, 293.25 K | 0.0058
in acetone, 298.15 K | 0.00849
in acetone, 303.45 K | 0.0121
in acetone, 308.15 K | 0.0171
in acetone, 313.25 K | 0.0237
in acetone, 318.15 K | 0.0332
in acetone, 323.45 K | 0.0442
in acetonitrile, 293.25 K | 0.00142
in acetonitrile, 298.15 K | 0.00218
in acetonitrile, 303.25 K | 0.0034
in acetonitrile, 308.25 K | 0.00546
in acetonitrile, 313.25 K | 0.00807
in acetonitrile, 318.15 K | 0.0117
in acetonitrile, 323.25 K | 0.0173
in acetonitrile, 328.15 K | 0.0246
in acetonitrile, 333.25 K | 0.0357
in diethyl ether, 288.25 K | 0.00064
in diethyl ether, 293.25 K | 0.00081
in diethyl ether, 298.15 K | 0.00101
in diethyl ether, 303.25 K | 0.00127
in ethanol, 293.25 K | 0.00037
in ethanol, 298.15 K | 0.00062
in ethanol, 303.35 K | 0.00097
in ethanol, 308.25 K | 0.00156
in ethanol, 313.25 K | 0.00238
in ethanol, 318.25 K | 0.00356
in ethanol, 323.25 K | 0.00528
in ethanol, 328.15 K | 0.00807
in ethanol, 333.25 K | 0.0115
in ethyl acetate, 293.25 K | 0.00423
in ethyl acetate, 298.15 K | 0.00605
in ethyl acetate, 303.35 K | 0.00865
in ethyl acetate, 308.25 K | 0.0123
in ethyl acetate, 313.25 K | 0.0169
in ethyl acetate, 318.15 K | 0.0226
in ethyl acetate, 323.25 K | 0.0308
in ethyl acetate, 328.15 K | 0.0419
in ethyl acetate, 333.25 K | 0.0553
in isopropanol, 293.15 K | 0.00013
in isopropanol, 298.23 K | 0.00024
in isopropanol, 303.25 K | 0.00041
in isopropanol, 308.15 K | 0.00071
in isopropanol, 313.35 K | 0.00125
in isopropanol, 318.15 K | 0.00211
in isopropanol, 323.17 K | 0.00346
in isopropanol, 328.15 K | 0.00544
in isopropanol, 333.25 K | 0.00933
in methanol, 293.25 K | 0.00022
in methanol, 298.15 K | 0.0004
in methanol, 303.25 K | 0.00069
in methanol, 308.15 K | 0.00118
in methanol, 313.25 K | 0.00205
in methanol, 318.15 K | 0.0034
in methanol, 323.45 K | 0.00597
in methyl acetate, 293.25 K | 0.00522
in methyl acetate, 298.25 K | 0.00729
in methyl acetate, 303.25 K | 0.0106
in methyl acetate, 308.15 K | 0.0144
in methyl acetate, 313.15 K | 0.0203
in methyl acetate, 318.15 K | 0.0275
in methyl acetate, 323.45 K | 0.0369
in n-propanol, 293.15 K | 0.00025
in n-propanol, 298.17 K | 0.00046
in n-propanol, 303.25 K | 0.00078
in n-propanol, 308.15 K | 0.00127
in n-propanol, 313.24 K | 0.00215
in n-propanol, 318.18 K | 0.0035
in n-propanol, 323.25 K | 0.00558
in n-propanol, 328.15 K | 0.00884
in n-propanol, 333.24 K | 0.0136
in toluene, 293.15 K | 0.00378
in toluene, 298.25 K | 0.00543
in toluene, 303.35 K | 0.00795
in toluene, 308.15 K | 0.0114
in toluene, 313.25 K | 0.0154
in toluene, 318.18 K | 0.0219
in toluene, 323.25 K | 0.0303
in toluene, 328.16 K | 0.0402
in toluene, 333.25 K | 0.0556
